Laboratory results taken from patent publication US10407467B2, “Polymyxin derivatives and their use in combination therapy together with different antibiotics” (priority 2013, dated 2019).
Bridge positions count the residues as written; N and C are the ends. Square brackets hold non-standard residues; d marks the D form. Peptide text beside a SMILES is read from it. * marks the point of attachment. ξ: configuration not given here. ξβ3hGly(cHex) = NC(CC(=O)*)C1CCCCC1; Thr(3ξ) = CC(O)[C@H](N)C(=O)O; Dab = NCC[C@H](N)C(=O)O

How the values were obtained:
[1] = tested on: Escherichia coli isolate ATCC25922; conditions: 10 mg/kg/day (5 mg/kg BID subcutaneous), neutropenic CD-1 mice, 24 h post-infection
Procedure: At 1 h, the CFU count was determined from 5 mice and the remaining mice (five per group) were treated with a subcutaneous injection of the drug at +1 and 6 hr post-infection.
Twenty-four hours after infection, the mice were euthanized humanely. The muscle of the right thigh of each animal was harvested, homogenized, serially diluted and plated on Brain Heart Infusion agar+0.5% charcoal (w/v) for CFU determination. Decrease of the total CFU of right thigh as compared to control counts at 24 h post-infection was determined for each dose group.

Escherichia coli = assay: MIC, compound in combination with a second agent (broth microdilution); assay type: cell-based
Method in brief: (§1)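 Broth microdilution with inoculum from 18-24 h Mueller-Hinton agar colonies adjusted to 0.5 McFarland, up to four strains per species. Compound combined 1:1 w/w with second agent (e.g. rifampicin), mass as salt form; MIC is total drug concentration. Duplicates, lower value reported if within 2-fold; modal value for repeat tests.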

Acinetobacter baumannii = assay: as above; assay type: cell-based
Method in brief: as §1

Klebsiella pneumoniae = assay: as above; assay type: cell-based
Method in brief: as §1

Pseudomonas aeruginosa = assay: as above; assay type: cell-based
Method in brief: as §1

[2] = 1:1 combination with Aztreonam, total drug concentration
[3] = 1:1 combination with Ciprofloxacin, total drug concentration
[4] = 1:1 combination with Tigecycline, total drug concentration
[5] = 1:1 combination with Vancomycin, total drug concentration
[6] = 1:1 combination with Ciprofloxacin (by row order), total drug concentration
[7] = Ratio of Compound to Rifampicin 1:1, total drug concentration
[8] = Ratio of Compound to Rifampicin 1:3, total drug concentration

With CC(C)C[C@@H]1NC(=O)[C@@H](Cc2ccccc2)NC(=O)[C@H](CCN)NC(=O)[C@@H](NC(=O)[C@H](CCN)NC(=O)[C@@H](NC(=O)CC(N)C2CCCCC2)C(C)O)CCNC(=O)[C@H](C(C)O)NC(=O)[C@H](CCN)NC(=O)[C@H](CCN)NC1=O (stereo partly drawn) [Example 10, [3(R,S)-3-Amino-3-cyclohexane-propanoyl]Polymyxin B nonapeptide] ({ξβ3hGly(cHex)}-[Thr(3ξ)][Dab][Dab][Dab][dF]L[Dab][Dab][Thr(3ξ)]; lactam 3-C) the “reduction in bacterial counts” value [1] was “over 3 log10”, the “MIC E. coli ATCC25922” value (Escherichia coli; 1:1 (wt:wt) combination with Rifampicin, MIC = total drug concentration, strain ATCC25922) was 0.125 micrograms/mL and the “MIC E. coli NCTC9001” value (Escherichia coli; 1:1 (wt:wt) combination with Rifampicin, MIC = total drug concentration, strain NCTC9001) was 0.125 micrograms/mL. The “MIC E. coli ATCC25922” value (Escherichia coli; [2]) was 0.125 micrograms/mL, the “MIC E. coli NCTC 13441” value (Escherichia coli; [2]) was 2 micrograms/mL and the “MIC E. coli ATCC25922” value (Escherichia coli; [3]) was at most 0.06 micrograms/mL. The “MIC E. coli CCUG 59342” value (Escherichia coli; [3]) was 1 micrograms/mL, the “MIC E. coli NCTC9001” value (Escherichia coli; [3]) was at most 0.06 micrograms/mL and the “MIC E. coli NCTC9001” value (Escherichia coli; [4]) was 8 micrograms/mL. The “MIC E. coli NCTC9001” value (Escherichia coli; [5]) was 16 microgram/mL, the “MIC E. coli ATCC25922” value (Escherichia coli; E. coli ATCC25922, 1:1 combination with Azithromycin, total drug concentration) was 0.125 micrograms/mL and the “MIC E. coli ATCC25922” value (Escherichia coli; E. coli ATCC25922, 1:1 combination with Fusidic acid, total drug concentration) was 1 micrograms/mL. The “MIC E. coli ATCC25922” value (Escherichia coli; E. coli ATCC25922, 1:1 combination with Novobiocin, total drug concentration) was 0.5 micrograms/mL, the “MIC E. coli ATCC25922” value (Escherichia coli; E. coli ATCC25922, 1:1 combination with Oxacillin, total drug concentration) was 8 micrograms/mL and the “MIC E. coli NCTC9001” value (Escherichia coli; E. coli NCTC9001, 1:1 combination with Meropenem, total drug concentration) was 0.5 micrograms/mL. The “MIC E. coli NCTC 13441” value (Escherichia coli; E. coli NCTC 13441, 1:1 combination with Azithromycin, total drug concentration) was 2 micrograms/mL, the “MIC E. coli NCTC 13441” value (Escherichia coli; E. coli NCTC 13441, 1:1 combination with Novobiocin, total drug concentration) was 0.5 micrograms/mL and the “MIC A. baumannii ATCC BAA-747” value (Acinetobacter baumannii; 1:1 (wt:wt) combination with Rifampicin, MIC = total drug concentration, strain ATCC BAA-747) was 0.25 micrograms/mL. For the same molecule, the “MIC A. baumannii CCUG57249” value (Acinetobacter baumannii; 1:1 (wt:wt) combination with Rifampicin, MIC = total drug concentration, strain CCUG57249) was 0.125 micrograms/mL, the “MIC A. baumannii NCTC 13423” value (Acinetobacter baumannii; 1:1 (wt:wt) combination with Rifampicin, MIC = total drug concentration, strain NCTC 13423) was 0.125 micrograms/mL and the “MIC A. baumannii NCTC 13424” value (Acinetobacter baumannii; 1:1 (wt:wt) combination with Rifampicin, MIC = total drug concentration, strain NCTC 13424) was 0.125 micrograms/mL. The “MIC A. baumannii NCTC 13424” value (Acinetobacter baumannii; [2]) was 1 micrograms/mL, the “MIC A. baumannii NCTC 13424” value (Acinetobacter baumannii; [6]) was 0.5 micrograms/mL and the “MIC A. baumannii NCTC 13424” value (Acinetobacter baumannii; A. baumannii NCTC 13424, 1:1 combination with Azithromycin, total drug concentration) was 1 micrograms/mL. For the same molecule, the “MIC K. pneumoniae ATCC 4352” value (Klebsiella pneumoniae; 1:1 (wt:wt) combination with Rifampicin, MIC = total drug concentration, strain ATCC 4352) was at most 0.06 micrograms/mL, the “MIC K. pneumoniae ATCC-BAA-2146” value (Klebsiella pneumoniae; 1:1 (wt:wt) combination with Rifampicin, MIC = total drug concentration, strain ATCC-BAA-2146) was 0.5 micrograms/mL and the “MIC K. pneumoniae CCUG-59348” value (Klebsiella pneumoniae; 1:1 (wt:wt) combination with Rifampicin, MIC = total drug concentration, strain CCUG-59348) was 1 micrograms/mL. For the same molecule, the “MIC K. pneumoniae NCTC 13438” value (Klebsiella pneumoniae; 1:1 (wt:wt) combination with Rifampicin, MIC = total drug concentration, strain NCTC 13438) was 0.5 micrograms/mL, the “MIC K. pneumoniae ATCC 4352” value (Klebsiella pneumoniae; [2]) was at most 0.06 micrograms/mL and the “MIC K. pneumoniae CCUG 59349” value (Klebsiella pneumoniae; [2]) was 4 micrograms/mL. The “MIC K. pneumoniae ATCC 4352” value (Klebsiella pneumoniae; [6]) was at most 0.06 micrograms/mL, the “MIC K. pneumoniae ATCC BAA-1706” value (Klebsiella pneumoniae; [6]) was 0.25 micrograms/mL and the “MIC K. pneumoniae CCUG 59348” value (Klebsiella pneumoniae; [3]) was 32 micrograms/mL. The “MIC K. pneumoniae NCTC 13442” value (Klebsiella pneumoniae; [3]) was 1 micrograms/mL, the “MIC K. pneumoniae CCUG 59348” value (Klebsiella pneumoniae; [4]) was over 32 micrograms/mL and the “MIC K. pneumoniae NCTC 13442” value (Klebsiella pneumoniae; [4]) was 16 micrograms/mL. For the same molecule, the “MIC K. pneumoniae CCUG 59348” value (Klebsiella pneumoniae; [5]) was over 32 microgram/mL, the “MIC K. pneumoniae NCTC 13442” value (Klebsiella pneumoniae; [5]) was 4 microgram/mL and the “MIC K. pneumoniae ATCC 4352” value (Klebsiella pneumoniae; K. pneumoniae ATCC4352, 1:1 combination with Azithromycin, total drug concentration) was 0.125 micrograms/mL. For the same molecule, the “MIC K. pneumoniae ATCC 4352” value (Klebsiella pneumoniae; K. pneumoniae ATCC4352, 1:1 combination with Fusidic acid, total drug concentration) was 0.5 micrograms/mL, the “MIC K. pneumoniae ATCC 4352” value (Klebsiella pneumoniae; K. pneumoniae ATCC4352, 1:1 combination with Novobiocin, total drug concentration) was 0.125 micrograms/mL and the “MIC K. pneumoniae ATCC BAA-1706” value (Klebsiella pneumoniae; K. pneumoniae ATCC BAA-1706, 1:1 combination with Meropenem, total drug concentration) was 4 micrograms/mL. For the same molecule, the “MIC K. pneumoniae CCUG 59348” value (Klebsiella pneumoniae; K. pneumoniae CCUG 59348, 1:1 combination with Meropenem, total drug concentration) was over 32 micrograms/mL, the “MIC K. pneumoniae CCUG 59349” value (Klebsiella pneumoniae; K. pneumoniae CCUG 59349, 1:1 combination with Azithromycin, total drug concentration) was 4 micrograms/mL and the “MIC K. pneumoniae CCUG 59349” value (Klebsiella pneumoniae; K. pneumoniae CCUG 59349, 1:1 combination with Novobiocin, total drug concentration) was 1 micrograms/mL. The “MIC K. pneumoniae NCTC 13442” value (Klebsiella pneumoniae; K. pneumoniae NCTC 13442, 1:1 combination with Meropenem, total drug concentration) was 16 micrograms/mL, the “MIC K. pneumoniae ATCC-BAA-2146” value (Klebsiella pneumoniae; [7]) was 0.5 micrograms/mL and the “MIC K. pneumoniae CCUG-59348” value (Klebsiella pneumoniae; [7]) was 1 micrograms/mL. For the same molecule, the “MIC K. pneumoniae NCTC 13438” value (Klebsiella pneumoniae; [7]) was 0.5 micrograms/mL, the “MIC K. pneumoniae ATCC-BAA-2146” value (Klebsiella pneumoniae; [8]) was 0.5 micrograms/mL and the “MIC K. pneumoniae CCUG-59348” value (Klebsiella pneumoniae; [8]) was 1 micrograms/mL. The “MIC K. pneumoniae NCTC 13438” value (Klebsiella pneumoniae; [8]) was 0.5 micrograms/mL, the “MIC P. aeruginosa ATCC 27853” value (Pseudomonas aeruginosa; 1:1 (wt:wt) combination with Rifampicin, MIC = total drug concentration, strain ATCC 27853) was 1 micrograms/mL and the “MIC P. aeruginosa ATCC-47” value (Pseudomonas aeruginosa; 1:1 (wt:wt) combination with Rifampicin, MIC = total drug concentration, strain ATCC-47) was 0.25 micrograms/mL. For the same molecule, the “MIC P. aeruginosa CCUG 59626” value (Pseudomonas aeruginosa; 1:1 (wt:wt) combination with Rifampicin, MIC = total drug concentration, strain CCUG 59626) was 0.25 micrograms/mL, the “MIC P. aeruginosa ATCC 10145” value (Pseudomonas aeruginosa; [2]) was 1 micrograms/mL and the “MIC P. aeruginosa ATCC 27853” value (Pseudomonas aeruginosa; [6]) was 0.125 micrograms/mL. The “MIC P. aeruginosa CCUG 59626” value (Pseudomonas aeruginosa; [6]) was 0.5 micrograms/mL, the “MIC P. aeruginosa CCUG 59626” value (Pseudomonas aeruginosa; [4]) was 1 micrograms/mL and the “MIC P. aeruginosa ATCC 10145” value (Pseudomonas aeruginosa; P. aeruginosa ATCC 10145, 1:1 combination with Azithromycin, total drug concentration) was 1 micrograms/mL.
